Assay results taken from US8889639B2, “Compositions and methods for modulating PGC-1β to treat lipid-related diseases and disorders” (Dana-Farber Cancer Institute, Inc., priority 2004, dated 2014).

Assays:
SREBP2 and SREBP1a = assay: FAS -700 luc reporter with SREBP2 and SREBP1a and PGC-1β RNAi constructs in hepatoma cells; format: cell-based, mouse; details: FAS promoter reporter
Source text: (§1) FIGS. 7A-H illustrate the requirement for PGC-1β in SREBP-mediated transcription. In particular, FIG. 7A depicts knockdown of PGC-1β protein levels by RNAi constructs. Cultured 293 cells were transiently transfected with PGC-1β expression plasmid (f-PGC-1β) in the presence of RNAi constructs or a vector control. Transfected cells were harvested for immunoblotting using a monoclonal antibody against the Flag epitope. Both RNAi constructs decrease PGC-1β protein levels compared to the vector control. FIGS. 7 B-E depict hepatoma cells that were transiently transfected with FAS—700 luc (B-C), G6Pase −1200 luc (D) or 4×LXRE-luc (E) in combination with plasmids. For RNAi, either a vector control or RNAi constructs directed toward PGC-1β were included in the transfection experiments. Luciferase activity was measured 48 hours after transfection. FIG. 7F depicts knockdown of PGC-1β protein by adenoviral expression of RNAi. H2.35 hepatoma cells were infected with Ad-GFP or Ad-RNAi for two days and then infected with Ad-PGC-1β. Total lysates were prepared for immunoblotting analysis using antibodies raised against PGC-1β. […] Total RNA was isolated from infected cells and analyzed by real-time PCR using primers specific for the genes. […] Relative SREBP1c expression was determined by real-time PCR analysis and normalized to 18S rRNA. […]

G6Pase promoter = assay: G6Pase -1200 luc reporter with PGC-1α and HNF4α and PGC-1β RNAi constructs in hepatoma cells; format: cell-based, mouse
Source text: as §1

LXRα = assay: 4×LXRE-luc reporter in H2.35 hepatoma cells; format: cell-based, mouse; details: reporter containing multimerized LXR responsive elements, RNAi cotransfection
Method: FIG. 6A-E illustrate the coactivation of LXRα by PGC-1α and PGC-1β. In particular, FIG. 6A depicts H2.35 hepatoma cells that were transiently transfected with 4×LXRE-luc in combination with plasmids. Transfected cells were treated with either vehicle DMSO (open box) or 10 μM of the LXR agonist T0901317 (filled box) for 24 hours before luciferase assay. FIG. 6B depicts H2.35 hepatoma cells that were transiently transfected with wild-type ABCA1 promoter reporter plasmid-(ABCA1-luc) or a mutant lacking the LXRE (ABCA1 ΔLXRE-luc) in combination with plasmids. Transfected cells were treated with vehicle or T0901317 as described in FIG. 6A. FIG. 6C depicts CHIP analysis on LXR target genes. H2.35 cells were infected with adenoviruses expressing GFP, flag-PGC-1α or flag-PGC-1β. Cells were treated with 10 μM of T0901317 for 3 hours before harvesting. PCR was performed on input or precipitated DNA using primers as indicated FIG. 6D depicts the interaction between LXRα and the N-termini of the PGC-1β proteins. […]
FIGS. 7A-H illustrate the requirement for PGC-1β in SREBP-mediated transcription. […] Luciferase activity was measured 48 hours after transfection. […] Total RNA was isolated from infected cells and analyzed by real-time PCR using primers specific for the genes. […] Relative SREBP1c expression was determined by real-time PCR analysis and normalized to 18S rRNA. […]

PGC-1β = assay: Free fatty acid treatment of primary hepatocytes, PGC-1β mRNA by real-time PCR; format: cell-based, mouse; details: 400 μM fatty acid, 4 hours
Source text: FIGS. 1A-D depict the induction of PGC-1β expression by dietary intake of saturated fats. In particular, FIG. 1A depicts a cluster analysis of liver gene expression in response to high-fat feeding. FIG. 1A exemplifies genes involved in hepatic lipogenesis that are induced more than 1.8-fold in response to high-fat feeding. A representative probe set was used in generating the tree in the event multiple probe sets were available for a single gene. SREBP1c and PGC-1β were included in this lipogenic cluster. FIG. 1B depicts the real-time PCR analysis of total liver RNA from mice fed a high-fat diet for 1 day (hatched box) or 2 days (filled box). Relative mRNA abundance was calculated by normalization to the control chow values (open box); N=4;*: p<0.01. FIG. 1C depicts the real-time PCR analysis of total liver RNA from mice fed a control diet containing 0.07% cholesterol (open box) or a diet containing 2% cholesterol for 1 day (hatched box) or 2 days (filled box). Values were normalized to those from mice fed the control diet; N=4;*: p<0.02. FIG. 1D depicts the regulation of PGC-1β expression by free fatty acids in isolated hepatocytes. Primary hepatocytes were treated with 400 μM of various fatty acids for 4 hours. Total RNA was isolated and analyzed by realtime PCR using primers specific for […] and PGC-1β (open box); *: p<0.01.
Primary hepatocytes were isolated following perfusion of whole liver first with perfusion buffer (Hank's Balanced Saline, HBSS) and then a collagenase solution (HBSS with 1% BSA and 0.05% collagenase). Dispersed cells were resuspended and seeded onto collagen-coated plates in DMEM supplemented with 10% FBS in the presence of 1 mM sodium pyruvate, 1 μM dexamethasone and 50 nM insulin. The cells were subsequently maintained in DMEM supplemented with 0.1% BSA and 1 mM sodium pyruvate for 24 hours before treatments. Free fatty acids were dissolved in ethanol as 100 mM stock solutions for further dilution in DMEM supplemented with 0.5% BSA to a final concentration of 400 μM. Hepatocytes were treated for 4 hours before RNA isolation and analysis.
(§2) Total RNA was isolated from liver or cultured hepatocytes using Trizol reagent (Invitrogen™). For real-time PCR analysis, cDNA was synthesized by reverse transcription using random primers and subjected to PCR amplification with genespecific primers in the presence of Cybergreen (Biorad™). Relative abundance of mRNA was calculated after normalization to 18S ribosomal RNA. For hybridization, 20 μg of total RNA was resolved on a formaldehyde gel, transferred to nylon membrane and hybridized with 32P-labeled gene-specific probes. Hybridization to ribosomal protein 36B4 was included as loading control.

hepatic gene expression = assay: High-cholesterol feeding, liver gene expression by real-time PCR; format: in vivo, mouse; details: diet containing 2% cholesterol vs 0.07% control
Method: Animals were fed a standard rodent chow and housed in a controlled environment with twelve-hour light and dark cycles. For high-fat feeding, three-month old male C57/B16J mice were switched to a diet containing 58% fat-derived calorie (D12331, Research Diets™) for 24 or 48 hours. For high-cholesterol feeding, two groups of mice were fed a base diet supplemented with either 0.07% or 2% cholesterol for 24 or 48 hours. Liver was dissected and immediately frozen for RNA isolation. The feeding experiments were repeated three times with four mice per group for each dietary treatment.
as §2
To examine whether dietary cholesterol had any impact on the expression of SREBPs and PGC-1β mice were fed a control diet containing 0.07% cholesterol or a similar diet containing 2% cholesterol. […] This induction of the genetic program of hepatic lipogenesis following acute intake of a high saturated fat diet was not previously observed.

PGC-1α = assay: Free fatty acid treatment of primary hepatocytes, PGC-1α mRNA by real-time PCR; format: cell-based, mouse; details: 400 μM fatty acid, 4 hours
Method: FIG. 1D depicts the regulation of PGC-1β expression by free fatty acids in isolated hepatocytes. Primary hepatocytes were treated with 400 μM of various fatty acids for 4 hours. Total RNA was isolated and analyzed by realtime PCR using primers specific for PGC-1β (filled box) and PGC-1β (open box); *: p<0.01.
Total RNA was isolated from liver or cultured hepatocytes using Trizol reagent (Invitrogen™). […] Relative abundance of mRNA was calculated after normalization to 18S ribosomal RNA.

“5′-GATATCCTCTGTGATGTTA-3′ (expressed or natural sequence) [SEQ ID NO 60, PGC-1β RNAi construct in pSUPER-retro vector under the H1-RNA promoter]” was tested, and the “SREBP transcriptional activity with SREBP2 and SREBP1a” value (SREBP2 and SREBP1a) was “very similar reduction”, the “regulation of G6Pase promoter activity by PGC-1α and HNF4α” value (G6Pase promoter) was “little or no effect” and the LXRα/RXRα transcriptional activity (LXRα) was “do not alter”.
With “5′-GTACGGAACTGCATAAGCA-3′ (expressed or natural sequence; the letters are possibly those of the target site) [SEQ ID NO:61, PGC-1β RNAi construct in pSUPER-retro vector under the H1-RNA promoter]” the “SREBP transcriptional activity with SREBP2 and SREBP1a” value (SREBP2 and SREBP1a) was “very similar reduction”, the “regulation of G6Pase promoter activity by PGC-1α and HNF4α” value (G6Pase promoter) was “little or no effect” and the LXRα/RXRα transcriptional activity (LXRα) was “do not alter”.
CC/C=C\C/C=C\C/C=C\C/C=C\C/C=C\CCCC(=O)O [EPA] was tested, and the PGC-1β expression (PGC-1β) was “only slightly induce”.
With CCCCC/C=C\C/C=C\C/C=C\C/C=C\CCCC(=O)O [arachidonic acid] the PGC-1β expression (PGC-1β) was “only slightly induce”.
CC(C)CCC[C@@H](C)[C@H]1CC[C@H]2[C@@H]3CC=C4C[C@@H](O)CC[C@]4(C)[C@H]3CC[C@]12C [cholesterol] was tested, and the “SREBP1c mRNA” value (hepatic gene expression) was “slightly increased”, the “expression of PGC-1β” value (hepatic gene expression) was “not altered” and the “hepatic expression of mRNA encoding SREBP2, along with HMGCoA reductase” value (hepatic gene expression) was “suppresses”. The “mRNA level of FAS, SCD-1 and glucose kinase (GK)” value (hepatic gene expression) was “remains largely unchanged”.
In the case of CCCCCCCC/C=C/CCCCCCCC(=O)O [elaidic acid], the “expression of PGC-1α” value (PGC-1α) is reported as 3.2 fold.
With CCCCC/C=C\C/C=C\CCCCCCCC(=O)O [linoleic acid] the PGC-1β expression (PGC-1β) was “only slightly induce”.
For CCCCCCCC/C=C\CCCCCCCC(=O)O [oleic acid], the PGC-1β expression (PGC-1β) was “only slightly induce”.
CCCCCCCCCCCCCCCCCC(=O)O [stearic acid] was tested, and the “PGC-1β mRNA” value (PGC-1β) was 2.2 fold.
In the case of CCCCCC/C=C/CCCCCCCCCC(=O)O [trans-vaccenic acid], the “expression of PGC-1α” value (PGC-1α) is reported as 3.2 fold.
